From paper PMC4283194 (Neuroimage, 2014)
Read-outs that look alike come from different tables or passages of the source.

Legend:
CB1 receptor [1] = molecular target: T1, CB1 receptor (Homo sapiens, UniProt P21554); assay: [11C]MePPEP PET, VT by rank shaping regularised spectral analysis (RS-SA); format: in vivo; design: VT median: unit not given beside the values
T1 construct: assess the stability of CB1-receptor quantification in humans in vivo; from tissue; host or cells: living human brain (healthy volunteers), in vivo PET
Protocol: (§1) Continuous and intermittent blood samples were collected to allow the subsequent generation of metabolite-corrected arterial plasma time–activity curves (TACs) ([Hammers et al., 2008]). During the first 15 min blood was withdrawn continuously at a rate of 300 ml/h and radioactivity measured in a BGO detection system ([Jones et al., 1994]). To quantify plasma and whole blood radioactivity, as well as to allow quantification of the parent fraction of the radiotracer, intermittent discrete (10 ml) samples were taken with heparinised syringes before the scan (baseline) and at the following time points after scan start: 3, 5, 10, 15, 20, 30, and 50 min. At 75 min, a larger 17 ml sample was taken to allow quantification despite radioactivity decay. […] Continuous plasma input functions (IF) were derived by cross-calibration and combination of the continuous and discrete data, multiplication with the fitted plasma-over-blood ratio, and correction for parent radiotracer fraction, as described in detail in previous studies ([Hammers et al., 2007a], [Jones et al., 1994]).
VT values were generated directly from dynamic data sampled using ROIs with rank shaping (RS; orthogonalized-functional-base) regularisation of SA ([Turkheimer et al., 2003]) using in-house “Clickfit” software. As previously described by [Turkheimer et al. (2003)], we used the metabolite-corrected IF, a logarithmically spaced basis, an exponential range of bases extending to − 3.2, and the regional tissue TAC. TACs were weighted according to ([Gunn et al., 1998]):(3) Wi=Li/Tiforframei=1,2,3…35 [wi — weight for frame i; Li — length of frame i (seconds); and Ti — rate of true coincidences (per second)].
The VT for each ROI was then obtained as the plateau of the VT(R), where R is the expected signal-to noise ratio that is used as the regularisation parameter (R) in rank-shaping (Fig. 2; ([Turkheimer et al., 2003])).

[2] = design: method as in Terry et al., 2010a; settings: 370 MBq injected; ref Terry et al., 2010a; cited from earlier work
CB1 receptor [3] = molecular target: T1, CB1 receptor; assay: [11C]MePPEP PET, VT by classic spectral analysis on ROI data (SA-ROIs); format: in vivo; design: unit not given beside the values
Protocol: as §1
Volumes of distribution (VTs) ([Innis et al., 2007]) for each ROI were obtained from the dynamic images and the metabolite-corrected IFs using spectral analysis (SA) ([Cunningham and Jones, 1993], [Cunningham et al., 1993], [Turkheimer et al., 1994]). The fast frequency boundary was kept at the default value of 0.1 s^− 1. […] Based on previous work with another tracer with relatively slow kinetics ([Hammers et al., 2007a]), we changed this to 0.00063 s^− 1 (log10 = − 3.20) in order to reduce noise.

CB1 receptor [4] = molecular target: T1, CB1 receptor; assay: [11C]MePPEP PET, modified standard uptake values (mSUV); format: in vivo; settings: ~30–60 min after injection
Protocol: Modified standard uptake values (mSUVs; [Innis et al., 2007]) for frames 25–31, i.e. from 29 min 50 s to 58 min 50 s after injection, were also derived for the ROIs according to ([Goffin et al., 2011]):(4) activity×weightkg+70kg/2/injecteddose.

CB1 receptor [5] = test system: CB1 receptor; design: method as in Terry et al., 2008, Terry et al., 2010b, Yasuno et al., 2008; settings: determined using CB1 knockout mouse brain, ref Terry et al., 2008, Terry et al., 2010b, Yasuno et al.; cited from earlier work
CB1 receptor [6] = molecular target: T1, CB1 receptor; assay: [11C]MePPEP PET, VT by classic spectral analysis parametric maps (SA-maps); format: in vivo
Protocol: as §1
The resulting parametric maps of VT values were then sampled in the eight selected ROIs.

CB1 receptor [7] = test system: CB1 receptor; design: method as in Terry et al., 2008, Terry et al., 2010b, Yasuno et al., 2008; settings: monkey brain, ref Terry et al., 2008, Terry et al., 2010b, Yasuno et al.; cited from earlier work
CB1 receptor [8] = molecular target: T1, CB1 receptor; assay: [11C]MePPEP PET, VT by reversible three-compartment model with variable blood volume (4kbv); format: in vivo; design: unit not given beside the values
Protocol: as §1
K1 and k2 were calculated as for the 2kbv compartmental model described above; in addition, two additional rate constants were estimated to describe transfer relating to the third compartment: k3, which describes the transfer from the free and non-specifically bound compartment to the specifically bound (third) compartment; and k4, which describes the opposite transfer ([Cunningham et al., 1991], [Huang et al., 1980]). Again, a variable blood volume term was also computed. According to compartmental model equations ([Gunn et al., 2001], [Watabe et al., 2006]):(2) VT=K1/k21+k3/k4.

CB1 receptor [9] = molecular target: T1, CB1 receptor; assay: [11C]MePPEP PET, VT by reversible two-compartment model with variable blood volume (2kbv); format: in vivo
Protocol: as §1
In this model, three microparameters are derived: K1 is the influx of the ligand from the plasma to the tissue compartment containing free, non-specifically bound, and specifically bound ligand, k2 is the efflux constant from the ROI back to plasma ([Cunningham et al., 1991], [Huang et al., 1980]), and bv is a variable blood volume term. VT is then calculated according to the compartmental model equation ([Watabe et al., 2006]):(1) VT=K1/k2.

T1 sequence (P21554 whole entry): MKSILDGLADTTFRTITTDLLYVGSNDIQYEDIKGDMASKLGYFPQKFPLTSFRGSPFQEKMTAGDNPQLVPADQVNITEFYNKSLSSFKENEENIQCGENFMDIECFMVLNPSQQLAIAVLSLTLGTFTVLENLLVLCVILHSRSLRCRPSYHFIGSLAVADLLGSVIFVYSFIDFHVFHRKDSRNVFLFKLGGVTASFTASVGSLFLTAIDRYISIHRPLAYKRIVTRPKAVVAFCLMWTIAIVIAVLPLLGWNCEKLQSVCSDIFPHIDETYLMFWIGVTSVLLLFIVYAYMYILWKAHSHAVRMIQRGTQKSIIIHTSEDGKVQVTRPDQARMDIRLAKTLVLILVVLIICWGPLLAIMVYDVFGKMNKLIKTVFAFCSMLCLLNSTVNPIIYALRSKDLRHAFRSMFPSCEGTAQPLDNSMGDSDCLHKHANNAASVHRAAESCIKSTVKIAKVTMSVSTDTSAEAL

With `COc1cccc([C@H]2C[C@@H](N[C@H](C)c3ccccc3)C(=O)N2c2ccc(C(F)(F)F)cc2)c1` [[^11C]MePPEP, (3R,5R)-5-(3-methoxy-phenyl)-3-((R)-1-phenyl-ethylamino)-1-(4-trifluoro-methyl-phenyl)-pyrrolidin-2-one] the VT median (CB1 receptor [1]; ACG) was 9.9, the “VT from VT(R) plateau, example plot” value (CB1 receptor [1]; Hippocampus, single example) was 12 and the VT median (CB1 receptor [1]; IFG) was 9.9. It also gave a VT median (CB1 receptor [1]; Pallidum) of 10.3, a VT median (CB1 receptor [1]; Pons) of 4.3 and a VT median (CB1 receptor [1]; Thalamus) of 6.5. For the same compound, the “effective dose per scan” value [2] was ~ 1.7 mSv, the VT median (CB1 receptor [3]; ACG) was 14.4 and the VT median (CB1 receptor [3]; Accumbens) was 13.9. The VT median (CB1 receptor [3]; Hippocampus) was 12.4, the VT median (CB1 receptor [3]; IFG) was 13.9 and the VT median (CB1 receptor [3]; Pallidum) was 15.7. The VT median (CB1 receptor [3]; Pons) was 6.0, the VT median (CB1 receptor [3]; Thalamus) was 9.6 and the mSUV median (CB1 receptor [4]; ACG) was 3.2. The mSUV median (CB1 receptor [4]; Accumbens) was 3.0, the mSUV median (CB1 receptor [4]; Caudate) was 2.9 and the mSUV median (CB1 receptor [4]; IFG) was 3.2. The mSUV median (CB1 receptor [4]; Pons) was 0.9, the specific binding (CB1 receptor [5]) was 65% and the VT median (CB1 receptor [6]; ACG) was 14.8. It also gave a VT median (CB1 receptor [6]; Caudate) of 12.9, a VT median (CB1 receptor [6]; Hippocampus) of 11.5 and a VT median (CB1 receptor [6]; IFG) of 14.8. For the same compound, the VT median (CB1 receptor [6]; Pallidum) was 15.8, the VT median (CB1 receptor [6]; Pons) was 4.4 and the VT median (CB1 receptor [6]; Thalamus) was 13.2. The specific binding (CB1 receptor [7]) was > 85%, the VT median (CB1 receptor [8]; ACG) was 9.0 and the VT median (CB1 receptor [8]; Accumbens) was 13.6. It also gave a VT median (CB1 receptor [8]; Caudate) of 6.2, a VT median (CB1 receptor [8]; Hippocampus) of 13.4 and a VT median (CB1 receptor [8]; Pallidum) of 10.6. The VT median (CB1 receptor [8]; Pons) was 5.3, the VT median (CB1 receptor [8]; Thalamus) was 6.1 and the VT median (CB1 receptor [9]; ACG) was 10.3. The VT median (CB1 receptor [9]; Hippocampus) was 8.0, the VT median (CB1 receptor [9]; Pallidum) was 10.8 and the VT median (CB1 receptor [9]; Pons) was 3.0. For the same compound, the VT median (CB1 receptor [9]; Thalamus) was 5.1.
